# US12544375B2, “Small molecule therapeutic for parkinson's disease paired with a biomarker of therapeutic activity” (The Board of Trustees of the Leland Stanford Junior …, priority 2019, dated 2026)
# Biological target: T1, Miro1 (Homo sapiens, UniProt Q8IXI2)
# T1 construct: We applied compound 3 to fibroblasts from one sporadic PD patient (PD-2); endogenous in cells; host or cells: human skin fibroblasts (PD-2, Healthy-1 and further PD/control lines)
# Experiment: Miro1 response to CCCP in PD fibroblasts, Western blotting
# Assay type: cell-based
# Protocol: FIG. 2A-FIG. 2F. Miro1 Reducer Eliminates the Miro1 Defect in PD Fibroblasts. (FIG. 2A) Chemical properties of Miro1 Reducer. (FIG. 2B) Wild-type flies (w^1118) were fed with DMSO alone (0 μM Miro1 Reducer) or Miro1 Reducer in DMSO at 250 μM for 7 days, and lysed and blotted as indicated. The band intensities are normalized to those of Tubulin from the same blots. n=4. (FIG. 2C-FIG. 2E) Fibroblasts were treated, lysed, and blotted as indicated. (FIG. 2C) Band intensities are normalized to those of GAPDH from the same blots and compared to “Healthy-1, no treatment” except otherwise indicated. n=4. (FIG. 2D) Band intensities are normalized to those of ATP5β from the same blots and expressed as a percentage of the mean of “0 μM Miro1 Reducer with CCCP”. Mean±S.E.M is shown. n=3. (FIG. 2E) Band intensities are normalized to those of GAPDH from the same blots and compared to “Healthy-1, no CCCP, no MG132” except otherwise indicated. n=4. (FIG. 2F) Healthy-1 and PD-2 fibroblasts were transfected as indicated, and immunostained with anti-Myc (Miro1, green) and stained with Dapi (blue). The Miro1 intensity is normalized to that of mito-dsRed from the same cell and quantified across 37-62 cells from 5 fields each transfection, 3 independent transfections. Scale bars: 50 μm. For (FIG. 2C-FIG. 2F), both CCCP and Miro1 Reducer were dissolved in DMSO. Cells were pretreated with Miro1 Reducer 24 hrs before the application of CCCP for another 6 hrs. The same volume of DMSO was applied at the same time in negative controls.
# FIG. 3A-FIG. 3D. Miro1 Reducer Rescues Parkinson's Neurodegeneration. (FIG. 3A) Fibroblasts were treated, lysed, and blotted as indicated. Band intensities are normalized to those of ATP5β from the same blots and compared to “Healthy-2, no treatment”. n=4. (FIG. 3B-FIG. 3C) iPSC-derived neurons were treated as indicated and immunostained with anti-TH (FIG. 3B) or stained with PI and Dapi (FIG. 3C). Both Antimycin A and Miro1 Reducer were dissolved in ethanol. Neurons were pretreated with Miro1 Reducer 24 hrs before the application of Antimycin A for another 6 hrs. The same volume of ethanol was applied at the same time in negative controls. (FIG. 3B) The density of TH-positive neurons is calculated in each condition under 20×, from 10 fields each experiment, 3-4 experiments. […] (FIG. 3C) The percentage of PI-positive cells out of total cells (Dapi-positive) is calculated. n=20 fields each experiment, 4 experiments. […] Graphs of Mean±S.E.M show the percent of time each mitochondrion is in motion (red and blue, compared to “Wild-type-I, before treatment”), and the mitochondrial intensity normalized to that of the same axonal region at “0 min” and expressed as a fraction of the mean of “Wild-type-I, 0 min”. n=33-77 mitochondria from 5-8 axons from 5-8 separate transfections. […]
# T1 sequence (Q8IXI2 whole entry): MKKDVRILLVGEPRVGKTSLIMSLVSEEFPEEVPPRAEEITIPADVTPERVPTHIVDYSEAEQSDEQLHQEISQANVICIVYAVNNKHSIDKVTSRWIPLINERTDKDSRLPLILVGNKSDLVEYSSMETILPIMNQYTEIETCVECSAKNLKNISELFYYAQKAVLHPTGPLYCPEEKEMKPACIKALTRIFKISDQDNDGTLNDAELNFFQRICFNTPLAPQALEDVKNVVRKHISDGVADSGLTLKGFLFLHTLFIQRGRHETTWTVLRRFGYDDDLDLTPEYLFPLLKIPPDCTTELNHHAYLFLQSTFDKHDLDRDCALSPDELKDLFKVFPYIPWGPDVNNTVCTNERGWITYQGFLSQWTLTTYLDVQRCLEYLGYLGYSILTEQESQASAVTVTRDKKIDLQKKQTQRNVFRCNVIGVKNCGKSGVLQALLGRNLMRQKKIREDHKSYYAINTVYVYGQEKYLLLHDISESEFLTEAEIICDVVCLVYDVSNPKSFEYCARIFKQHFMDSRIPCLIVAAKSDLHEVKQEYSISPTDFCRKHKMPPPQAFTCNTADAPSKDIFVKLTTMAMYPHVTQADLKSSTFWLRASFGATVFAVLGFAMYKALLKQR
smiles,measurement,setting,value
O=C(Nc1ccc(Nc2cc(-n3ccnc3)ncn2)cc1)Nc1cccc(F)c1 [Miro1 Reducer],Miro1 degradation following CCCP treatment,"PD-2 fibroblasts, 10 μM for 30 hrs, CCCP 6 hrs",robustly promoted Miro1 degradation
same,reduction of Miro1 protein in presence of proteasome inhibitor MG132,"PD-2 fibroblasts, following CCCP treatment",blocked by the proteasome inhibitor MG132
same,Miro1 degradation after depolarization in additional lines,additional 4 control and 4 sporadic PD fibroblast cell lines,same beneficial change of Miro1 degradation after depolarization
same,IC50,"fibroblasts pretreated 24 hrs, then CCCP 6 hrs, FIG. 2D, read-out: Miro1 protein levels, dose-dependent response (IC50)",7.8 µM
